Experimental data from ChEMBL document CHEMBL4715719, “Synthesis and biological properties of polyamine modified flavonoids as hepatocellular carcinoma inhibitors” (Eur J Med Chem, 2016).
Active and inactive are the calls of the source. The rule behind the calls is not given here.

How the values were obtained:
[1] = Cytotoxicity against human QSG7701 cells assessed as inhibition of cell proliferation at 30 uM measured after 48 hrs by MTT assay relative to control; format: cell-based
SMMC-7721 [2] = test: Antiproliferative activity against human […] cells assessed as inhibition of cell proliferation at 30 uM measured after 48 hrs by MTT assay relative to control; format: functional
HepG2 [3] = test: Antiproliferative activity against human HepG2 cells assessed as inhibition of cell proliferation at 100 uM measured after 48 hrs by MTT assay relative to control; format: functional
SMMC-7721 [4] = test: Antiproliferative activity against human […] cells assessed as inhibition of cell proliferation at 100 uM measured after 48 hrs by MTT assay relative to control; format: functional
HepG2 [5] = test: Antiproliferative activity against human HepG2 cells assessed as inhibition of cell proliferation at 30 uM measured after 48 hrs by MTT assay relative to control; format: functional
[6] = Cytotoxicity against human QSG7701 cells assessed as inhibition of cell proliferation at 100 uM measured after 48 hrs by MTT assay relative to control; format: cell-based
[7] = Toxicity in Kunming mouse implanted with mouse H22 cells assessed as change in body weight at 100 mg/kg, iv administered for 7 consecutive days starting from day 11 post inoculation and measured after 18 days (reference value: 5.2 %); format: organism-based; conditions: in vivo, 192 h, time 8 day
H22 [8] = test: Antitumor activity against mouse H22 cells implanted in Kunming mouse assessed as reduction in tumor weight at 100 mg/kg, iv administered for 7 consecutive days starting from day 8 post inoculation and measured after 16 days (reference value: 2.15 +/- 0.51 g); format: functional; conditions: time 8 day
HepG2 [9] = test: Induction of ROS generation in human HepG2 cells at 80 uM after 48 hrs by DCFH-DA staining based assay; format: functional, cell-based
H22 [10] = test: Antitumor activity against mouse H22 cells implanted in Kunming mouse assessed as tumor growth inhibition at 100 mg/kg, iv administered for 7 consecutive days starting from day 8 post inoculation and measured after 16 days relative to control; format: functional; conditions: 192 h, time 8 day, read-out: TGI
HepG2 [11] = test: Induction of lysosomal impairment in human HepG2 cells at 80 uM after 48 hrs by Lyso-tracker Red staining based assay; format: functional, cell-based
[12] = Toxicity in Kunming mouse implanted with mouse H22 cells assessed as mouse mortality at 100 mg/kg, iv administered for 7 consecutive days starting from day 8 post inoculation and measured after 16 days; format: organism-based; conditions: in vivo, 192 h, time 8 day
HepG2 [13] = test: Induction of apoptosis in human HepG2 cells assessed as activation of caspase 9 at 80 uM measured after 48 hrs by immunofluorescence assay; format: functional, cell-based
HepG2 [14] = test: Induction of apoptosis in human HepG2 cells assessed as activation of caspase 3 at 80 uM measured after 48 hrs by immunofluorescence assay; format: functional, cell-based
H22 [15] = test: Antimetastatic activity against mouse H22 cells implanted in Kunming mouse assessed as inhibition of metastasis at 100 mg/kg, iv administered for 7 consecutive days starting from day 11 post inoculation and measured after 18 days relative to control; format: functional; conditions: 192 h, time 8 day
HepG2 [16] = test: Induction of apoptosis in human HepG2 cells assessed as activation of caspase 8 at 80 uM measured after 48 hrs by immunofluorescence assay; format: functional, cell-based
HepG2 [17] = test: Induction of mitochondrial membrane potential loss in human HepG2 cells at 80 uM after 48 hrs by Rh123 staining based assay; format: functional, cell-based
[18] = Toxicity in Kunming mouse implanted with mouse H22 cells assessed as change in mouse body weight at 100 mg/kg, iv administered for 7 consecutive days starting from day 8 post inoculation and measured after 16 days (reference value: 21 %); format: organism-based; conditions: in vivo, 192 h, time 8 day
[19] = Toxicity in Kunming mouse implanted with mouse H22 cells assessed as change in mouse body weight at 0.4 mg/kg, iv administered for 7 consecutive days starting from day 8 post inoculation and measured after 16 days (reference value: 21 %); format: organism-based; conditions: in vivo, 192 h, time 8 day
H22 [20] = test: Antimetastatic activity against mouse H22 cells implanted in Kunming mouse assessed as inhibition of metastasis at 0.4 mg/kg, iv administered for 7 consecutive days starting from day 11 post inoculation and measured after 18 days relative to control; format: functional; conditions: 192 h, time 8 day
SMMC-7721 [21] = test: Antiproliferative activity against human […] cells assessed as inhibition of cell proliferation at 5 uM measured after 48 hrs by MTT assay relative to control; format: functional
[22] = Toxicity in Kunming mouse implanted with mouse H22 cells assessed as change in body weight at 0.4 mg/kg, iv administered for 7 consecutive days starting from day 11 post inoculation and measured after 18 days (reference value: 5.2 %); format: organism-based; conditions: in vivo, 192 h, time 8 day
HepG2 [23] = test: Antiproliferative activity against human HepG2 cells assessed as inhibition of cell proliferation at 1 uM measured after 48 hrs by MTT assay relative to control; format: functional
[24] = Toxicity in Kunming mouse implanted with mouse H22 cells assessed as mouse mortality at 0.4 mg/kg, iv administered for 7 consecutive days starting from day 8 post inoculation and measured after 16 days; format: organism-based; conditions: in vivo, 192 h, time 8 day
SMMC-7721 [25] = test: Antiproliferative activity against human […] cells assessed as inhibition of cell proliferation at 1 uM measured after 48 hrs by MTT assay relative to control; format: functional
H22 [26] = test: Antimetastatic activity against mouse H22 cells implanted in Kunming mouse assessed as number of metastatic focus at 0.4 mg/kg, iv administered for 7 consecutive days starting from day 11 post inoculation and measured after 18 days (reference value: 5.73 +/- 14.6); format: functional; conditions: time 8 day
H22 [27] = test: Antitumor activity against mouse H22 cells implanted in Kunming mouse assessed as tumor growth inhibition at 0.4 mg/kg, iv administered for 7 consecutive days starting from day 8 post inoculation and measured after 16 days relative to control; format: functional; conditions: 192 h, time 8 day, read-out: TGI
[28] = Toxicity in iv dosed Kunming mouse assessed as maximum tolerated dose; format: organism-based; conditions: in vivo
[29] = Cytotoxicity against human QSG7701 cells assessed as inhibition of cell proliferation at 5 uM measured after 48 hrs by MTT assay relative to control; format: cell-based
HepG2 [30] = test: Antiproliferative activity against human HepG2 cells assessed as inhibition of cell proliferation at 5 uM measured after 48 hrs by MTT assay relative to control; format: functional
H22 [31] = test: Antitumor activity against mouse H22 cells implanted in Kunming mouse assessed as reduction in tumor weight at 0.4 mg/kg, iv administered for 7 consecutive days starting from day 8 post inoculation and measured after 16 days (reference value: 2.15 +/- 0.51 g); format: functional; conditions: time 8 day
[32] = Cytotoxicity against human QSG7701 cells assessed as inhibition of cell proliferation at 1 uM measured after 48 hrs by MTT assay relative to control; format: cell-based
Mus musculus [33] = test: Upregulation of phosphorylated JNK in Kunming mouse implanted with mouse H22 cells assessed as activation of p53 at 800 uM measured after 48 hrs by immunofluorescence analysis; format: functional
Mus musculus [34] = test: Upregulation of phosphorylated p38 in Kunming mouse implanted with mouse H22 cells assessed as activation of p53 at 800 uM measured after 48 hrs by immunofluorescence analysis; format: functional
Mus musculus [35] = test: Downregulation of Bcl-2 in Kunming mouse implanted with mouse H22 cells at 800 uM measured after 48 hrs by immunofluorescence analysis; format: functional

SMILES	inhibition at 48 h, 30 µM [1]	inhibition at 30 µM (SMMC-7721 [2])	inhibition at 100 µM (HepG2 [3])	inhibition at 100 µM (SMMC-7721 [4])	inhibition at 30 µM (HepG2 [5])	inhibition at 48 h, 100 µM [6]	other results
CN(C)CCNCC(=O)NCc1cccc2c(=O)cc(-c3cccc4ccccc34)oc12	< 5%	< 5%	7.5%	16.6%	< 5%	17.9%	
O=c1c(O)c(-c2ccc(O)c(O)c2)oc2cc(O)cc(O)c12 [QUERCETIN]	< 5%	29.5%	56.3%	62.9%	33.2%	36%	Activity [7]: 2.1%; Activity (H22 [8]): 1.3 g; Activity (HepG2 [9]): Active; inhibition in vivo at 100 mg/kg (H22 [10]): 39.7%; Activity (HepG2 [11]): Active; Activity [12]: Non-Toxic; Activity (HepG2 [13]): Active; Activity (HepG2 [14]): Active; inhibition in vivo at 100 mg/kg (H22 [15]): 34.1%; Activity (HepG2 [16]): Active; Activity (HepG2 [17]): Active; Activity [18]: 6.3%
O=C1c2c(O)ccc(O)c2C(=O)c2c(NCCNCCO)ccc(NCCNCCO)c21 [MITOXANTRONE]							Activity [19]: -6.6%; inhibition in vivo at 0.4 mg/kg (H22 [20]): 49.2%; inhibition at 5 µM (SMMC-7721 [21]): 62.2%; Activity [22]: -0.8%; inhibition at 1 µM (HepG2 [23]): 41.2%; Activity [24]: Non-Toxic; inhibition at 1 µM (SMMC-7721 [25]): 20.5%; Activity (H22 [26]): 29.1; inhibition in vivo at 0.4 mg/kg (H22 [27]): 73.4%; MTD [28]: 0.4 mg/kg; inhibition at 48 h, 5 µM [29]: 82.5%; inhibition at 5 µM (HepG2 [30]): 78.6%; Activity (H22 [31]): 0.57 g; inhibition at 48 h, 1 µM [32]: 75.8%
NCCCCNCC(=O)NCc1cccc2c(=O)cc(-c3cccc4ccccc34)oc12	< 5%	< 5%	16.1%	39.8%	< 5%	10.6%	
NCCCCNCCCNCC(=O)NCc1cccc2c(=O)cc(-c3cccc4ccccc34)oc12	< 5%	7.6%	28.9%	32.5%	< 5%	22.4%	
NCCCCNCCCCNCC(=O)NCc1cccc2c(=O)cc(-c3cccc4ccccc34)oc12	46.7%	70.2%	75.9%	85.5%	62%	74.4%	
CC(=O)Oc1ccccc1C(=O)O							Activity (Mus musculus [33]): Active; Activity (Mus musculus [34]): Active; Activity (Mus musculus [35]): Active
CCCCNCC(=O)NCc1cccc2c(=O)cc(-c3cccc4ccccc34)oc12	19.6%	14.6%	21.6%	28.4%	6%	41.7%	
